According to US20190070266A1 (Novo Nordisk A/S, priority 2016, published 2019):

Tested on: adult human subjects with type 2 diabetes at high risk for cardiovascular events
Test: Same trial: adverse events by preferred term with frequency of at least 0.1%
Format: in vivo
Settings: full analysis set
Protocol: A long-term, multi-centre, international, randomised double-blind, placebo-controlled trial with 9340 human subjects was carried out with treatment for at least 3.5 years and up to 5 years per subject; and this trial concerned the incidence of cardiovascular events in adult human subjects with type 2 diabetes that were at high risk for cardiovascular events, including such subjects with existing cardiovascular disease. […] All trial endpoints were collected and assessed throughout the entire duration of the trial. Subject inclusion and exclusion criteria were as described in Table 2. The subject's characteristics, cardiovascular risk profile, renal function, cardiovascular medication, and antidiabetic treatment regimens of the randomised subjects at baseline were as shown in Tables 3a-e. Overall trial duration was planned as 18 months of recruitment period followed by 42 months of treatment from last subject randomised. […] After randomisation, treatment with liraglutide or placebo was double-blind throughout the trial. […] The term “placebo” as used herein refers to a formulation identical to the liraglutide formulation except not comprising liraglutide and the placebo was administered in the volume used in the equivalent liraglutide dosage. […] The dosage could be reduced at any time in the trial if required by the subject's tolerance to the trial product. […] The subcutaneous injection was made either in the abdomen, thigh or upper arm.
The term “baseline” herein (e.g. used as part of “baseline characteristics” or “baseline cardiovascular risk profile”) may refer to the level of a certain parameter (e.g. level of HbA1c) by the determination made in connection with the medical visit at the time of randomisation of the subject.
The results of this trial may be presented herein as a number or fraction of subjects experiencing an event. Alternatively, the results of this trial may be presented with hazard ratios estimated in a Cox proportional hazard model, which is the standard statistical model used for estimating time to an event. […] A 5% significance level is the standard level for investigating significance in clinical trials.

[1] = Preferred term: Diabetic foot infection

For CCCCCCCCCCCCCCCC(=O)N[C@@H](CCC(=O)NCCCC[C@H](NC(=O)[C@H](C)NC(=O)[C@H](C)NC(=O)[C@H](CCC(N)=O)NC(=O)CNC(=O)[C@H](CCC(=O)O)NC(=O)[C@H](CC(C)C)NC(=O)[C@H](Cc1ccc(O)cc1)NC(=O)[C@H](CO)NC(=O)[C@H](CO)NC(=O)[C@@H](NC(=O)[C@H](CC(=O)O)NC(=O)[C@H](CO)NC(=O)[C@@H](NC(=O)[C@H](Cc1ccccc1)NC(=O)[C@@H](NC(=O)CNC(=O)[C@H](CCC(=O)O)NC(=O)[C@H](C)NC(=O)[C@@H](N)Cc1cnc[nH]1)[C@@H](C)O)[C@@H](C)O)C(C)C)C(=O)N[C@@H](CCC(=O)O)C(=O)N[C@@H](Cc1ccccc1)C(=O)N[C@H](C(=O)N[C@@H](C)C(=O)N[C@@H](Cc1c[nH]c2ccccc12)C(=O)N[C@@H](CC(C)C)C(=O)N[C@H](C(=O)N[C@@H](CCCNC(=N)N)C(=O)NCC(=O)N[C@@H](CCCNC(=N)N)C(=O)NCC(=O)O)C(C)C)[C@@H](C)CC)C(=O)O [Liraglutide, Arg34,Lys26-(N-epsilon-(gamma-L-glutamyl(N-alfa-hexadecanoyl)))-GLP-1(7-37)], the “Adverse events by preferred term, % (proportion of subjects experiencing at least one event)” value (shortened to “Adverse events by preferred term, %”) [1] was 0.3%, the “Adverse events by preferred term, R (rate, events per 100 PYO)” value (“Adverse events … (rate, events per 100 PYO)” for short) [1] was less than 0.1 events per 100 PYO and the “Adverse events by preferred term, %” value (Preferred term: Diabetic foot) was 2.8%. The “Adverse events … (rate, events per 100 PYO)” value (Preferred term: Diabetic foot) was 1.0 events per 100 PYO, the “Adverse events by preferred term, %” value (Preferred term: Gangrene) was 0.2% and the “Adverse events … (rate, events per 100 PYO)” value (Preferred term: Gangrene) was less than 0.1 events per 100 PYO. The “Adverse events by preferred term, %” value (Preferred term: Skin ulcer) was 0.6% and the “Adverse events … (rate, events per 100 PYO)” value (Preferred term: Skin ulcer) was 0.2 events per 100 PYO.
